The values that follow come from the Deep4Chem optical property database.

This series is described as follows: solvent given as SMILES.

Molecules are shown by their SMILES.

For `Cc1cc(C)c(B(c2ccc(-c3nc4c5ccccc5c5ccccc5c4[nH]3)cc2)c2c(C)cc(C)cc2C)c(C)c1`, the absorption maximum is, setting by setting: (in C1CCOC1) 384 nm; (in CC(C)=O) 380 nm; (in CS(C)=O) 386 nm; (in Cc1ccccc1) 381 nm; (in ClCCl) 376 nm.
As to `Cc1cc(=O)oc2cc(O)ccc12`, the absorption maximum (in CCO) is 323 nm.
Take `c1csc(-c2ccc(-c3cccs3)c3nsnc23)c1`: for the setting “in ClC(Cl)Cl”, the absorption maximum is reported as 445 nm.
For the compound `Cc1cc(O)c(C(=O)/C=C/c2ccc(Cl)cc2)c(=O)o1`, the absorption maximum is, setting by setting: (in CC#N) 357 nm; (in ClCCl) 360 nm.
On to `CC1=N/C(=C\c2ccc(N(C)C)cc2)C(=O)N1C`, for which the absorption maximum is, setting by setting: (in C1CCCCC1) 405 nm; (in C1CCOC1) 419 nm; (in CC#N) 422 nm; (in CO) 435 nm; (in CS(C)=O) 434 nm; (in ClCCl) 428 nm. Where the note is “in O”, this compound returned an absorption maximum of 446 nm.
`c1ccc(-c2cc(-c3ccccc3)cc(-c3ccc4c(c3)C3(c5ccccc5-4)c4ccccc4-c4c3c3c5ccccc5c(-c5cc(-c6ccccc6)cc(-c6ccccc6)c5)cc3c3ccccc43)c2)cc1` (stereo unspecified): for the setting “in C1CCOC1”, the absorption maximum is recorded as 387 nm.
Under “in CCCCCC”, `CC(C)[Si](C#Cc1c2ccccc2c(C#C[Si](C(C)C)(C(C)C)C(C)C)c2nc3c(nc12)C1c2ccccc2C3c2ccccc21)(C(C)C)C(C)C` returned an absorption maximum of 445 nm.
As to `c1csc(-c2ccc3c4ccc(-c5cccs5)cc4n(-c4cccs4)c3c2)c1`, the absorption maximum (in ClCCl) came to 352 nm.
`COc1ccc(-n2nc(C#N)c(N3CCCCCC3)n2)cc1` showed an absorption maximum (in CC#N) of 344 nm.
As to `CN(C)c1ccc(/C=C/C=C2\CC/C(=C\c3ccc(N(C)C)cc3)C2=O)cc1`, the absorption maximum is, setting by setting: (in C1CCOC1) 479 nm; (in CC#N) 478 nm; (in CC(C)=O) 474 nm; (in CC(C)O) 493 nm; (in CCCCCC) 435 nm; (in CCCCO) 499 nm. In addition, the absorption maximum is, setting by setting: (in CCCCOC(C)=O) 468 nm; (in CCCO) 499 nm; (in CCO) 498 nm; (in CCOC(=O)c1ccccc1) 481 nm; (in CCOC(C)=O) 464 nm; (in CCOCC) 448 nm. Also, the absorption maximum reads like this: (in CN(C)C=O) 486 nm; (in CO) 500 nm; (in CS(C)=O) 496 nm; (in Cc1ccccc1) 475 nm; (in ClC(Cl)(Cl)Cl) 449 nm; (in ClC(Cl)Cl) 486 nm. Besides, the absorption maximum is, setting by setting: (in ClCCl) 484 nm; (in Clc1ccccc1Cl) 488 nm; (in S=C=S) 489 nm; (in c1ccccc1) 475 nm; (in c1ccncc1) 488 nm.
Regarding `CCCCCCCc1cc2c(o1)=CC1=C3c4cc5oc(CCCCCCC)cc5n4[B-](F)(F)[n+]4nnn(c43)[B-](F)(F)[N+]=21`, the absorption maximum by setting is: (in C1CCOC1) 676 nm; (in ClCCl) 685 nm.
Turning to `O=c1oc2ccccc2c2c1c(=O)oc1cc(O)cc(O)c12`, the absorption maximum (in CS(C)=O) came out at 388 nm and the absorption maximum (in ClCCl) was 385 nm.
On to `C1=C(c2ccccc2)C=C(c2ccccc2)/C1=C/c1ccccc1`, for which, for the setting “in C1CCOC1”, the absorption maximum amounted to 438 nm.
As for `CC1(C)C(/C=C/C2=C(Cl)C(=C/C=C3/N(CCCCS(=O)(=O)[O-])c4ccc5ccccc5c4C3(C)C)/CCC2)=[N+](CCCCS(=O)(=O)[O-])c2ccc3ccccc3c21`, the absorption maximum (in CO) was determined as 820 nm.
On to `c1ccc(-c2ccc(-c3ccc(-c4cc(-c5ccc(-c6ccc(-c7ccccc7)cc6)cc5)cc(-c5ccc(-c6ccc(-c7ccccc7)cc6)cc5)c4)cc3)cc2)cc1`, for which, under “in C1COCCO1”, the absorption maximum is 306.5 nm.
As to `CCCC1(CCC)c2ccccc2-c2ccc(-c3ccc(C(C)(C)C)cc3)cc21`, the absorption maximum (in C1CCCCC1) turned out to be 314 nm.
`CC1(C)C(/C=C/C=C/C=C/C=C2\N(CCCCS(=O)(=O)[O-])c3ccc4ccccc4c3C2(C)C)=[N+](CCCCS(=O)(=O)[O-])c2ccc3ccccc3c21` gave an absorption maximum (in O) of 780 nm.
Take `CCn1c2ccccc2c2cc(-c3cc(-c4ccc5c(c4)c4ccccc4n5CC)nc(-c4ccccc4)n3)ccc21`: the absorption maximum turned out to be 364 nm (in C1CCOC1); 360 nm (in CCOC(C)=O); 367 nm (in CN(C)C=O); 363 nm (in Cc1ccccc1); 363 nm (in ClCCl).
Where the note is “in CCCCCCC”, `c1ccc2c3c(ccc2c1)-c1cc2ccccc2c2cccc-3c12` yielded an absorption maximum of 381 nm.
As for `c1ccc(-c2nc(-c3ccc(-c4ccc(-n5c6ccccc6c6ccccc65)cc4)cn3)oc2-c2ccccc2)cc1`, the absorption maximum was found to be 333 nm (in C1CCOC1); 326 nm (in C1COCCO1); 330 nm (in CC#N); 333 nm (in CC(C)=O); 334 nm (in CC(C)OC(C)C); 336 nm (in CCCCCC). Also, the absorption maximum is on record as 336 nm (in CCCCOCCCC); 333 nm (in CCN(CC)CC); 332 nm (in CCOC(C)=O); 333 nm (in CCOCC); 338 nm (in Cc1ccccc1); 338 nm (in c1ccccc1).
Consider `O=P1(c2ccccc2)C2=C(c3ccccc31)S(=O)(=O)c1ccccc12` (stereo unspecified), for which the absorption maximum was 380 nm (in C1CCCCC1), 383 nm (in CC#N), 386 nm (in CCO) and 386 nm (in ClCCl).
For the setting “in O”, `[NH3+]C(Cc1c[nH]c2ccccc12)C(=O)[O-]` (stereo unspecified) gave an absorption maximum of 277 nm.
The compound `CN(C)c1ccc2c(-c3cc(N)ccc3C(=O)[O-])c3ccc(=[N+](C)C)cc-3oc2c1` returned an absorption maximum (in CCO) of 542 nm and an absorption maximum (in O) of 544 nm.
In the case of `CCOC(=O)c1ccccc1-c1c2ccc(=[N+](CC)CC)cc-2oc2c1c(=O)oc1cc(N(CC)CC)ccc12`, the absorption maximum by setting is: (in CCO) 595 nm; (in ClC(Cl)Cl) 601 nm; (in O) 596 nm.
`O=S1(=O)C2=C(c3ccccc31)C1(c3ccccc32)c2ccccc2-c2sc3ccccc3c21` (stereo unspecified) had an absorption maximum (in ClCCl) of 360 nm.
Compound `CCOc1cc(C=C2c3ccccc3-c3ccccc32)c(OCC)cc1C=C1c2ccccc2C=Cc2ccccc21` returned an absorption maximum (in C1CCOC1) of 395 nm.
Compound `CN(C)c1ccc(C2=CC3=C(c4ccc(C=C(C#N)C#N)cc4)[C@H]4c5ccccc5[C@]3(S2)c2ccccc24)cc1` came in with an absorption maximum (in ClCCl) of 543 nm.
As to `CC1(C)c2ccccc2N(c2ccc3c(c2)c2ccccc2n2c4ccccc4nc32)c2ccccc21`, the absorption maximum (in Cc1ccccc1) amounted to 376 nm.
For the compound `Clc1ncc(-c2c3ccccc3c(-c3cnc(Cl)nc3)c3ccccc23)cn1`, the absorption maximum by setting is: (in CCO) 394 nm; (in ClCCl) 396 nm.
Turning to `CCN(CC)c1ccc(/C=N/C(C#N)=C(C#N)\N=C\c2ccc(N(CC)CC)cc2O)c(O)c1`, the absorption maximum (in CC#N) stood at 564 nm.
As for `c1ccc2c(c1)[nH]c1c3[nH]c4ccccc4c3c3nsnc3c21`, the absorption maximum reads like this: (in CN(C)C=O) 410 nm; (in Cc1ccccc1) 410 nm; (in ClCCl) 410 nm.
In turn, `CN(C)C1=Nc2cccc3cccc1c23` registered an absorption maximum (in CC#N) of 427 nm.
Turning to `N#Cc1ccc(N/N=C/c2cc(Cl)ccc2O)cc1`, the absorption maximum (in CO) is given as 354 nm.
For the compound `CN1/C(=C/C=C(/C=C/C2=[N+](C)c3ccccc3C2(C)C)c2cc(F)cc(F)c2)C(C)(C)c2ccccc21`, the absorption maximum worked out at 636 nm (in CCO), 633 nm (in CO), 644 nm (in CS(C)=O) and 631 nm (in O).
Turning to `COc1ccc2cc(/C=C/C3=C4CCc5ccccc5C4=[O+][B-](F)(F)O3)ccc2c1`, under “in ClCCl”, the absorption maximum is on record as 479 nm.
As for `CCCCCCN1C(=O)c2cccc3c(-c4cc5ccccc5s4)ccc(c23)C1=O`, where the note is “in ClC(Cl)Cl”, the absorption maximum was determined as 378 nm.
In turn, `CCc1s[c+](N2CCCCC2)sc1-c1cc(C)cc(I)c1[O-]` had an absorption maximum (in C1CCOC1) of 409 nm, an absorption maximum (in CC#N) of 405 nm, an absorption maximum (in CO) of 360 nm and an absorption maximum (in ClCCl) of 406 nm.
For the setting “in ClCCl”, `CCCCCCc1cc2c(=S)c3cc(CCCCCC)cc4c(=S)c5cc(CCCCCC)cc6c(=S)c(c1)c2n(c34)c65` showed an absorption maximum of 572 nm.
Turning to `COc1ccc2c(c1)c(=O)c1ccccc1n2CCCCCC(=O)O`, the absorption maximum (in O) turned out to be 422 nm.
The compound `CCCCCCCCOc1cc(/C=C/c2cc(OCCCCCCCC)c(/C=C/c3cc(OCCCCCCCC)c(Br)cc3OCCCCCCCC)cc2OCCCCCCCC)c(OCCCCCCCC)cc1Br` registered an absorption maximum (in ClCCl) of 410 nm.
As for `CCn1c2ccccc2c2cc(-c3cc(-c4ccc5c(c4)c4ccccc4n5CC)nc(S(C)(=O)=O)n3)ccc21`, the absorption maximum came out at 381 nm (in C1CCOC1); 378 nm (in CCOC(C)=O); 384 nm (in CN(C)C=O); 382 nm (in Cc1ccccc1); 384 nm (in ClCCl).
As to `CCCCCCN1C(=O)c2cccc3c(-c4scc5c4OCCO5)ccc(c23)C1=O`, for the setting “in ClC(Cl)Cl”, the absorption maximum is 390 nm.
For the compound `C(=C\c1cc(-c2ccc3ccccc3c2)c(/C=C/c2ccc(N(c3ccccc3)c3ccccc3)cc2)cc1-c1ccc2ccccc2c1)/c1ccc(N(c2ccccc2)c2ccccc2)cc1`, the absorption maximum (in ClCCl) was 419 nm.
Under “in Cc1ccccc1”, `c1ccc(-c2nc(-c3ccccc3)nc(-c3ccc(-n4c5ccccc5c5ccccc54)cc3)n2)cc1` yielded an absorption maximum of 364 nm.
With `CC/[NH+]=c1\cc2oc3cc(NCCC(=O)NCC(=O)OC)c4ccccc4c3nc-2cc1C`, the absorption maximum is, setting by setting: (in CCO) 600 nm; (in O) 590 nm.
In turn, `C(#Cc1nccnc1C#Cc1ccccc1)c1ccccc1` returned an absorption maximum (in CC#N) of 315 nm.
